The source of these data is US20240270821A1, “GIP/GLP1/GCG TRI-RECEPTOR AGONISTS AND USES THEREOF” (priority 2023, published 2024).

What all share (assay type): cell-based
Assay [1] concerns the target T1, hGIPR (Homo sapiens, UniProt P48546).
T1 sequence (P48546 22-466): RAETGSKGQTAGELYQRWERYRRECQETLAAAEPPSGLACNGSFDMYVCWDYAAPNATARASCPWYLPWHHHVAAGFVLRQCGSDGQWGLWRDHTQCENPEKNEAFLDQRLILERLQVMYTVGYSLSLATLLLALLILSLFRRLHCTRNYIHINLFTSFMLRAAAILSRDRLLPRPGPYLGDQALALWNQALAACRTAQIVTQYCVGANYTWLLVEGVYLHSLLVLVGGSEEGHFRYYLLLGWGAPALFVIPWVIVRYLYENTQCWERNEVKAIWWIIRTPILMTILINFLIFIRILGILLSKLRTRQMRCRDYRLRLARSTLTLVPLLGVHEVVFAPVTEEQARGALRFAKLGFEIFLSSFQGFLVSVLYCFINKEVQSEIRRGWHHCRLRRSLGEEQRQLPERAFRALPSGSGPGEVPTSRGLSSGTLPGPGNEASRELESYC
Kind of assay: Functional cAMP activity in the presence of 1% HSA. To be noted: read-out: cAMP Rel EC50, hGIPR.

Assay [2] has as its target T2, hGLP-1R (Homo sapiens, UniProt P43220). Put plainly: Functional cAMP activity in the presence of 1% HSA. To be noted: read-out: cAMP Rel EC50, hGLP-1R.
For another assay, the target named is human GcgR (Homo sapiens, UniProt P47871). Put plainly: Functional cAMP activity in the presence of 1% HSA. To be noted: read-out: cAMP Rel EC50, hGcgR.
human GcgR, sequence (P47871 26-477): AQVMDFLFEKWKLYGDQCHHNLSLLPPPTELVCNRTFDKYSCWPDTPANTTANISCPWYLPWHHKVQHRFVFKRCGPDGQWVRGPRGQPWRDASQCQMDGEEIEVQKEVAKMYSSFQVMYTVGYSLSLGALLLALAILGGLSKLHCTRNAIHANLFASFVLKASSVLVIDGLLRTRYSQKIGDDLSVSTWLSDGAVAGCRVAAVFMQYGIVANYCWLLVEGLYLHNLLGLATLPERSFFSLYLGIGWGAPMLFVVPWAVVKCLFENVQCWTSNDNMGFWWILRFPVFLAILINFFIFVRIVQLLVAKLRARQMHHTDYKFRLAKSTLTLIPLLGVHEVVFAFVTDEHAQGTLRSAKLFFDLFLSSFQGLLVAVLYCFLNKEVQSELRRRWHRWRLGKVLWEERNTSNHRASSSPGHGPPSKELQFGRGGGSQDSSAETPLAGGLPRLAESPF
Assay [3] concerns the target T1, hGIPR. Kind of assay: Functional cAMP activation in the presence of 0.1% casein (no HSA). To be noted: geometric mean, read-out: Relative cAMP EC50, hGIPR.
In assay [4] the target is T2, hGLP-1R. Described as above. To be noted: geometric mean, read-out: Relative cAMP EC50, hGLP-1R.
A further assay deals with hGcgR (Homo sapiens, UniProt P47871). Described as above. As to conditions: geometric mean, read-out: Relative cAMP EC50, hGcgR.
hGcgR, sequence (P47871 26-477): as above
Setting [5] is: in the presence of 0.1% casein (no HSA).

Read-outs that look alike come from different tables or passages of the source. Starred links: 1 amine or outer side, 2 acyl side, 3 side chain; linkers in the order of their positions; H or OH if unused. Non-standard residues stand in square brackets, D forms with d. Groups on a side chain read outwards from the residue. No end group written: not given here. *: point of attachment. C18 diacid = O=C(O)CCCCCCCCCCCCCCCCC(=O)*; αMePhe(2-F) = C[C@](N)(Cc1ccccc1F)C(=O)O; γGlu = O=C(O)[C@H](CCC(=O)[*:2])N[*:1]; αMe4Pal = C[C@](N)(Cc1ccncc1)C(=O)O; αMeY = C[C@](N)(Cc1ccc(O)cc1)C(=O)O; αMeF = C[C@](N)(Cc1ccccc1)C(=O)O; 4Pal = N[C@@H](Cc1ccncc1)C(=O)O; αMeL = CC(C)C[C@](C)(N)C(=O)O; αMeS = C[C@](N)(CO)C(=O)O; Orn = NCCC[C@H](N)C(=O)O; AEEA = NCCOCCOCC(=O)O; Aib = CC(C)(N)C(=O)O
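Wherever Relative cAMP EC50, hGIPR is given: intracellular cAMP rise after 30 min at 37 °C read by HTRF against a standard curve, scaled between buffer alone (0%) and top control ligand concentration (100%), four-parameter fit.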
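Wherever Relative cAMP EC50, hGLP-1R is given: intracellular cAMP rise after 30 min at 37 °C read by HTRF, normalized between buffer only (0%) and maximal control ligand (100%), four-parameter variable-slope fit.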
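Wherever Relative cAMP EC50, hGcgR is given: intracellular cAMP rise after 30 min at 37 °C, read by HTRF against a cAMP standard curve, scaled from buffer only (0%) to maximal control ligand response (100%).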

T2 sequence (P43220 24-463): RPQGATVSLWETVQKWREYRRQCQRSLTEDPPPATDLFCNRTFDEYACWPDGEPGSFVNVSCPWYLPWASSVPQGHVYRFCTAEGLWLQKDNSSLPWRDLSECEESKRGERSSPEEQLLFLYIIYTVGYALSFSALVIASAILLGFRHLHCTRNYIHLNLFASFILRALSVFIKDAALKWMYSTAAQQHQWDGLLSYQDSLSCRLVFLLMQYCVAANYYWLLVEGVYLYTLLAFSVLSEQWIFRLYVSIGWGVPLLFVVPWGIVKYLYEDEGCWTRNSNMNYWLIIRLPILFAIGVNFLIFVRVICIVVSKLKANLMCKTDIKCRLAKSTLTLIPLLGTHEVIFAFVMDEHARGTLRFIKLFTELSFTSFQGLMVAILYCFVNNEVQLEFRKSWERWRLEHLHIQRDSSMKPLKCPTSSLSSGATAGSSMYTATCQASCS

“H-Y[Aib]QGTFTSDFS[Orn][αMeL]LDKK([AEEA-γGlu-C18 diacid])AQ[Aib]AFIEWLLEGGSSSGAPPPSGH-NH2 [Example 270]”: the EC50 – broadly, the midpoint of the concentration-response curve – was found to be 36.5 nM at hGIPR [1]; 658 nM at hGLP-1R [2]; 1060 nM at human GcgR; 0.26 nM at hGIPR [3] (setting [5]); 3.2 nM on hGLP-1R [4] (setting [5]); 5 nM on hGcgR (setting [5]).

Regarding “H-Y[Aib]QGTFTSD[4Pal]S[Orn][αMeL]LD[Orn]K([γGlu-γGlu-C18 diacid])AQ[αMe4Pal]EFIE[αMeY]LIEGGPSSGAPPPSGSEE-NH2 [Example 973]”, the EC50 at hGIPR [1] was found to be 60.1 nM; at hGLP-1R [2], 1140 nM; on human GcgR, 2270 nM; at hGIPR [3] (setting [5]), 0.503 nM; at hGLP-1R [4] (setting [5]) it was 6.1 nM; on hGcgR (setting [5]) it was 17.6 nM.

With “H-Y[Aib]QGT[αMePhe(2-F)]TSD[4Pal][αMeS]I[αMeL]LD[Orn]QAQ[αMe4Pal]EFI[dE][αMeY]LIEGGPSSGAPPPSGS-NH2 [Example 1232]”, the half-maximal effective concentration (EC50) at hGIPR [1] came to 0.00687 nM; at hGLP-1R [2], 0.694 nM; on human GcgR, 8.53 nM; on hGIPR [3] (0.1% casein, no HSA) it was 0.00893 nM; at hGLP-1R [4] (0.1% casein, no HSA), 0.723 nM; at hGcgR (0.1% casein, no HSA), 6.69 nM.

Take “Y[Aib]QGT[αMeF]TSD[4Pal][αMeS]I[αMeL]LD[Orn]K([AEEA-γGlu-C18 diacid])AQ[αMe4Pal]EFI[dE][αMeY]LIEGGPSSGEPPPSGGGE-NH2 [Example 1169]”: the 50% effective concentration (EC50) on hGIPR [1] was 1.18 nM; on hGLP-1R [2], 80 nM; at human GcgR it was 304 nM; on hGIPR [3] (setting [5]), 0.011 nM; at hGLP-1R [4] (setting [5]), 0.613 nM; at hGcgR (setting [5]) it was 2.43 nM.

For `CC[C@H](C)[C@H](NC(=O)[C@H](Cc1ccccc1)NC(=O)[C@H](C)NC(=O)C(C)(C)NC(=O)[C@H](CCC(N)=O)NC(=O)[C@H](C)NC(=O)[C@H](CCCCNC(=O)COCCOCCNC(=O)COCCOCCNC(=O)CC[C@H](NC(=O)CCCCCCCCCCCCCCCCCCC(=O)O)C(=O)O)NC(=O)[C@H](CCCCN)NC(=O)[C@H](CC(=O)O)NC(=O)[C@H](CC(C)C)NC(=O)[C@H](CC(C)C)NC(=O)[C@@H](NC(=O)[C@H](CO)NC(=O)[C@H](Cc1ccc(O)cc1)NC(=O)[C@H](CC(=O)O)NC(=O)[C@H](CO)NC(=O)[C@@H](NC(=O)[C@](C)(Cc1ccccc1F)NC(=O)[C@@H](NC(=O)CNC(=O)[C@H](CCC(N)=O)NC(=O)C(C)(C)NC(=O)[C@@H](N)Cc1ccc(O)cc1)[C@@H](C)O)[C@@H](C)O)[C@@H](C)CC)C(=O)N[C@@H](CCC(=O)O)C(=O)N[C@@H](Cc1ccc(O)cc1)C(=O)N[C@@H](CC(C)C)C(=O)N[C@@H](CC(C)C)C(=O)N[C@@H](CCC(=O)O)C(=O)NCC(=O)NCC(=O)N1CCC[C@H]1C(=O)N[C@@H](CO)C(=O)N[C@@H](CO)C(=O)NCC(=O)N[C@@H](C)C(=O)N1CCC[C@H]1C(=O)N1CCC[C@H]1C(=O)N1CCC[C@H]1C(=O)N[C@@H](CO)C(N)=O` [Example 385], the 50% effective concentration (EC50) on hGIPR [1] turned out to be 4.03 nM; at hGLP-1R [2] it was 86.1 nM; at human GcgR, 700 nM; at hGIPR [3] (setting [5]), 0.0141 nM; at hGLP-1R [4] (setting [5]), 0.235 nM; at hGcgR (setting [5]), 1 nM.

With “H-Y[Aib]QGTFTSD[4Pal]SQ[αMeL]LDKK([γGlu-AEEA-γGlu-C18 diacid])AQ[αMe4Pal]AFIEYLIE[Aib]GPSSGAPPPSGS-NH2 [Example 861]”, the EC50 stood at 18.3 nM at hGIPR [1]; 322 nM at hGLP-1R [2]; 1350 nM at human GcgR; 0.195 nM at hGIPR [3] (setting [5]); 2.62 nM at hGLP-1R [4] (setting [5]); 8.59 nM on hGcgR (setting [5]).
